From patent US6706663B2, “Herbicidal 3-heterocyclic substituted benzisothiazole and benzisoxazole compounds” (Wyeth, priority 2000, dated 2004)

What was measured:
[1] = tested on: CYPSE (Cyperus serotinus); assay: Flooded paddy, preemergence weed control; type: in vivo, Rottb.; details: rated 3-4 weeks after treatment, 0-9 rating scale
Summary of the method: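 Herbicidal effect was scored visually on a 0–9 scale against an untreated control 3–4 weeks after treatment. Compounds were applied preemergence as 50/50 v/v aqueous/acetone mixtures into flood water (1.5–3 cm deep over silt loam), at roughly 0.0080 to 0.1250 kg/ha active ingredient.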

[2] = tested on: IPOHE (Ipomoea hederacea); assay: Postemergence herbicidal evaluation; type: in vivo, (L.) Jacq.
Summary of the method: (§1)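 Visual 0–9 injury scores versus control plants, covering stand, vigour, malformation, size, chlorosis and general appearance, taken four to five weeks post-spray and averaged over replicate tests. Plants were sprayed at roughly two weeks old and held on greenhouse benches.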

ORYSAT (Rice, Tebonnet) [3] = assay: Preemergence herbicidal evaluation; type: in vivo, Oryza sativa, (L.) Tebonnet; details: rated 4-5 weeks after treatment
[4] = tested on: ECHORC (Echinochloa oryzoides); assay: Flooded paddy, preemergence weed control; type: in vivo, Echinochloa oryzoides (Ard.) Fritsch.; details: rated 3-4 weeks after treatment, 0-9 rating scale
Summary of the method: (§2)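 Plants were established from seed or propagating organs in flooded silt loam, with the water surface held 1.5 to 3 cm above the soil for the entire experiment. Injury was assessed visually against a control and given a 0-9 score.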

[5] = tested on: CASOB (Cassia obtusifolia); assay: Postemergence herbicidal evaluation; type: in vivo, L.
Summary of the method: as §1

[6] = tested on: AMBEL (Ambrosia artemisifolia); assay: Postemergence herbicidal evaluation; type: in vivo, L.
Summary of the method: as §1

[7] = tested on: CHEAL (Chenopodium album); assay: Postemergence herbicidal evaluation; type: in vivo, L.
Summary of the method: as §1

[8] = tested on: CASOB (Cassia obtusifolia); assay: Preemergence herbicidal evaluation; type: in vivo, L.; details: rated 4-5 weeks after treatment
Summary of the method: (§3)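 Steps: mix seeds with potting soil; plant on ~1 inch soil per cup; spray compound in aqueous acetone; hold on greenhouse benches with routine watering; rate 0–9 visually against control at 4–5 weeks.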

[9] = tested on: AMBEL (Ambrosia artemisifolia); assay: Preemergence herbicidal evaluation; type: in vivo, L.; details: rated 4-5 weeks after treatment
Summary of the method: as §3

[10] = tested on: CHEAL (Chenopodium album); assay: Preemergence herbicidal evaluation; type: in vivo, L.; details: rated 4-5 weeks after treatment
Summary of the method: as §3

[11] = tested on: ABUTH (Abutilon theophrasti); assay: Postemergence herbicidal evaluation; type: in vivo, Medic.
Summary of the method: as §1

[12] = tested on: SAGPY (Sagittaria pygmaea); assay: Flooded paddy, preemergence weed control; type: in vivo, L.; details: rated 3-4 weeks after treatment, 0-9 rating scale
Summary of the method: as §2

ORYSAT (Rice, Tebonnet) [13] = assay: Flooded paddy, post-transplant rice tolerance; type: in vivo, Oryza sativa, (L.) Tebonnet; details: flooded paddy, post-transplant rice, rated 3-4 weeks after treatment, 0-9 rating scale
Summary of the method: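 Steps: transplant two ten-day-old seedlings into silt loam; flood to 1.5-3 cm above soil; apply herbicide post-transplant; maintain water on greenhouse benches; rate stand, vigor, malformation, size and chlorosis on a 0-9 visual scale versus control.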

[14] = tested on: ECHCG (Echinochloa crus-galli); assay: Postemergence herbicidal evaluation; type: in vivo, (L.) Beau
Summary of the method: as §1

[15] = tested on: TRZAWR (Wheat, Winter, cv Riband); assay: Postemergence herbicidal evaluation; type: in vivo, Triticum aestivum
Summary of the method: as §1

[16] = tested on: ABUTH (Abutilon theophrasti); assay: Preemergence herbicidal evaluation; type: in vivo, Medic.; details: rated 4-5 weeks after treatment
ZEAMX (Corn, Field) = assay: Postemergence herbicidal evaluation; type: in vivo, Zea mays, L.
Summary of the method: as §1

ORYSAT (Rice, Tebonnet) [17] = assay: Postemergence herbicidal evaluation; type: in vivo, Oryza sativa, (L.) Tebonnet
Summary of the method: as §1

[18] = tested on: TRZAWR (Wheat, Winter, cv Riband); assay: Preemergence herbicidal evaluation; type: in vivo, Triticum aestivum; details: rated 4-5 weeks after treatment
Summary of the method: as §3

Cn1c(C(F)(F)F)cc(=O)n(-c2ccc3snc(C4OCCO4)c3c2)c1=O [Compound 45, 3-[3-(1,3-dioxolan-2-yl)-1,2-benzisothiazol-5-yl]-1-methyl-6-(trifluoromethyl)uracil]
4.3: Postemergence herbicidal rating, ORYSAT (ORYSAT (Rice, Tebonnet) [17]; rate 0.0320 kg/ha)
5.5: Postemergence herbicidal rating, ZEAMX (ZEAMX (Corn, Field); rate 0.0320 kg/ha)
8.5: Postemergence herbicidal rating, CHEAL ([7]; rate 0.0320 kg/ha) | herbicidal rating, ORYSAT (rice tolerance) (ORYSAT (Rice, Tebonnet) [13]; rate 0.0080 kg/ha)
4.4: Postemergence herbicidal rating, TRZAWR ([15]; rate 0.0320 kg/ha)
8.0: herbicidal rating, SAGPY ([12]; rate 0.0320 kg/ha)
2.8: Postemergence herbicidal rating, ECHCG ([14]; rate 0.0320 kg/ha)
9.0: herbicidal rating, CYPSE ([1]; rate 0.0080 kg/ha) | herbicidal rating, CYPSE ([1]; rate 0.0320 kg/ha) | herbicidal rating, CYPSE ([1]; rate 0.1250 kg/ha) | Postemergence herbicidal rating, IPOHE ([2]; rate 0.0320 kg/ha) | Postemergence herbicidal rating, IPOHE ([2]; rate 0.0620 kg/ha) | Preemergence herbicidal rating ORYSAT (ORYSAT (Rice, Tebonnet) [3]; Rate 0.1250 kg/ha) | Preemergence herbicidal rating ORYSAT (ORYSAT (Rice, Tebonnet) [3]; Rate 0.2500 kg/ha) | herbicidal rating, ECHORC ([4]; rate 0.1250 kg/ha) | Postemergence herbicidal rating, CASOB ([5]; rate 0.0620 kg/ha) | Postemergence herbicidal rating, AMBEL ([6]; rate 0.0320 kg/ha) | Postemergence herbicidal rating, AMBEL ([6]; rate 0.0620 kg/ha) | Postemergence herbicidal rating, CHEAL ([7]; rate 0.0620 kg/ha) | Preemergence herbicidal rating CASOB ([8]; Rate 0.1250 kg/ha) | Preemergence herbicidal rating CASOB ([8]; Rate 0.2500 kg/ha) | Preemergence herbicidal rating AMBEL ([9]; Rate 0.0620 kg/ha) | Preemergence herbicidal rating AMBEL ([9]; Rate 0.1250 kg/ha) | Preemergence herbicidal rating AMBEL ([9]; Rate 0.2500 kg/ha) | Preemergence herbicidal rating CHEAL ([10]; Rate 0.0620 kg/ha) | Preemergence herbicidal rating CHEAL ([10]; Rate 0.1250 kg/ha) | Preemergence herbicidal rating CHEAL ([10]; Rate 0.2500 kg/ha) | Postemergence herbicidal rating, ABUTH ([11]; rate 0.0320 kg/ha) | Postemergence herbicidal rating, ABUTH ([11]; rate 0.0620 kg/ha) | herbicidal rating, SAGPY ([12]; rate 0.1250 kg/ha) | herbicidal rating, ORYSAT (rice tolerance) (ORYSAT (Rice, Tebonnet) [13]; rate 0.0320 kg/ha) | herbicidal rating, ORYSAT (rice tolerance) (ORYSAT (Rice, Tebonnet) [13]; rate 0.1250 kg/ha) | Preemergence herbicidal rating ABUTH ([16]; Rate 0.0620 kg/ha) | Preemergence herbicidal rating ABUTH ([16]; Rate 0.1250 kg/ha) | Preemergence herbicidal rating ABUTH ([16]; Rate 0.2500 kg/ha) | Preemergence herbicidal rating TRZAWR ([18]; Rate 0.0620 kg/ha) | Preemergence herbicidal rating TRZAWR ([18]; Rate 0.1250 kg/ha) | Preemergence herbicidal rating TRZAWR ([18]; Rate 0.2500 kg/ha)
7.0: herbicidal rating, SAGPY ([12]; rate 0.0080 kg/ha)
5.0: Postemergence herbicidal rating, CASOB ([5]; rate 0.0320 kg/ha) | Postemergence herbicidal rating, TRZAWR ([15]; rate 0.0620 kg/ha)
8.7: Preemergence herbicidal rating ORYSAT (ORYSAT (Rice, Tebonnet) [3]; Rate 0.0620 kg/ha) | Preemergence herbicidal rating CASOB ([8]; Rate 0.0620 kg/ha)
5.2: Postemergence herbicidal rating, ORYSAT (ORYSAT (Rice, Tebonnet) [17]; rate 0.0620 kg/ha)
4.0: Postemergence herbicidal rating, ECHCG ([14]; rate 0.0620 kg/ha)
3.5: herbicidal rating, ECHORC ([4]; rate 0.0080 kg/ha)
7.3: herbicidal rating, ECHORC ([4]; rate 0.0320 kg/ha)
6.0: Postemergence herbicidal rating, ZEAMX (ZEAMX (Corn, Field); rate 0.0620 kg/ha)
